Columns and labels:
[1] = test system: PCa cell lines; experiment: Growth inhibition across the PCa cell panel; assay type: cell-based; details: Homo sapiens; 72 hours, range across the cell panel; read-out: IC50 values, range over PCa cell lines
Source text: Four commercial (LnCaP, 22rv1, DU145 and PC3) and twelve non-commercial (LAPC-4 [44], CWR22, PCb2 [45], PC3Lymphnode, PC3M, PC3M-pro4 [46] and PC3M-Ln4 [47], LnCaP-104S [47], LnCaP104R1 [47], LnCaP-C81 [47], C4-2B [48], VCAP [49] and DuCaP [[49]) cell lines were selected for the in vitro experimental studies for their biological characteristics: LAPC-4 (Androgen receptor [AR] positive, androgen dependent with low Akt/mTOR activities, p53 wt); LnCaP (AR positive, androgen dependent with high Akt/mTOR activities, p53 wt); LnCaP-C81 and LnCaP-C4-2B (AR positive, androgen independent with high Akt/mTOR activities, p53 wt); 22rv1 (AR positive, androgen independent with low Akt/mTOR activities, p53 wt); PC3 (AR negative, with high Akt/mTOR activities and no p53 function (p53 del) and DU145 (AR negative, with low Akt/mTOR activities and mutant p53). PC3 and DU145 have been also transfected with AR to obtain PC3AR [50] and DU-AR [51]. Benign prostatic hyperplasia line (BPH1), and Prostatic epithelial lines (EPN and RWPE-1) were used as non-neoplastic controls. Cells were routinely cultured in appropriate medium supplemented with 10 % fetal bovine serum (FBS), 1 % pen-strep and 1 % L-glutamine (Invitrogen Corporation, Carlsbad, CA). To minimize the risk to work with misidentified and/or contaminated cell lines, DNA profiling was periodically carried out in-house to authenticate cell cultures. DNA was isolated from cell lines using a standard DNA isolation kit. […]
Cells were seeded at a density of 2 x 10^4 cells/mL in 24-well plates. […] Cells were trypsinized and resuspended in 1.0 ml of saline, then counted using a NucleoCounter™ NC-100 (automated cell counter systems, Chemotec, Gydevang, Denmark). The effect on cell proliferation was measured by taking the mean cell number with respect to controls over time for the different treatment groups.
Viable cells were counted by using the NucleoCounter™ NC-100 (automated cell counter systems, Chemotec, Cydevang, DK). Apoptosis was evaluated by using Tali® Apoptosis Kit - Annexin V Alexa Fluor® 488 & Propidium Iodide-based, (Life Technologies Italia, Monza, Italy). Stained cells were then measured on a Tali® Image-Based Cytometer. […]
Six SINE analogs KPT-127, KPT-185, KPT-205, KPT-227, KPT251 and KPT-330 sharing a trifluoromethyl phenyl triazole scaffold, were investigated for their growth inhibitory and apoptotic potential in our PCa cell panel. Therefore, the effects of these XPO1 inhibitors were evaluated on the growth of PCa cell lines performing dose- and time-dependent studies. To examine the dose-dependent effects of these compounds, we treated cells with varying doses of the compounds (0, 1, 10, 50, 100, 500 and 1000 nM) and assessed viability at 72 hours after treatment. The IC50 for each compound was then calculated. […]

[2] = test system: 22rv1 cells; experiment: Western blot of nuclear proteins; assay type: cell-based, human; details: 100 nM
Experimental: (§1) Cytoplasmic and nuclear protein extracts were obtained by using the Nuclear/Cytosol Fractionation Kit from Biovision Inc. (Milpitas, CA, USA). Cell extracts and conditioned media from treated and untreated cells were electrophoresed under reducing conditions and transferred to nitrocellulose filter (Schleicher and Schuell GmbH, Dassel, Germany). Non specific binding sites were blocked for 1 h in 5 % non-fat dried milk in a Tris buffer containing 20 mM Tris and 137 mM NaCl (pH 7.6). Blots were incubated with 1 μg/ml of primary antibody diluted in blocking solution for 1 h at room temperature, washed and then incubated for 1 h in secondary antibody diluted 1:3000 in blocking solution. Following an additional wash, reactive bands were visualized by a chemiluminescent detection kit (Supersignal, Perbio Science, Tattenhall, UK) using Bio-Rad gel Doc™ (Bio-Rad Laboratories S.r.l., Milan, Italy).
(§2) The molecular pathways that are induced by XPO-1 inhibition were evaluated by immunoblots, ELISA and immunocytochemical analyses performed in PC3, DU145 and 22rv1 as models of CRPC using 100 nM KPT-330 as reference compound. The effects were monitored in early and chronic treatments. […] In Fig. 3a, we show representative western blots for nuclear and cytoplasm expression of cyclin D1 and XPO-1 in PC3 cell extracts after 2–12 hr of treatment with KPT-330. […] In addition, prolonged treatment with KPT-330 determined a reduction of cyclin D1 protein expression in DU145 cell lines (Fig. 3c). Increased nuclear expression of FOXO3a is visible also by IHC (Fig. 3e) in 22rv1 cells treated with KPT-330. […] Therefore, the inhibition of XPO-1-mediated export machinery may enhance AR signaling (manuscript in preparation). […] Although proteasome inhibitors are considered for treatment of solid tumors, these compounds could reduce the effectiveness of selinexor, requiring further investigation.

[3] = test system: PC3 cells; experiment: Western blot of nuclear proteins; assay type: cell-based, human; details: 100 nM, 2-12 hrs
Experimental: as §1, §2

[4] = test system: PC3, DU145 and 22rv1; experiment: Molecular changes by immunoblots, ELISA and immunocytochemistry; assay type: cell-based, human
Experimental: as §1, §2

FC(F)(F)c1cc(-c2ncn(/C=C\c3nnco3)n2)cc(C(F)(F)F)c1 [KPT-251]
IC50 [1]: 150 to 300 nM

O=C(/C=C\n1cnc(-c2cc(C(F)(F)F)cc(C(F)(F)F)c2)n1)NNc1cnccn1 [KPT-330]
total expression of AR, prolonged exposure ([2]; 22rv1 cells, prolonged exposure): significantly reduced
nuclear expression of p53 and MDM2 ([2]; AR+/p53wt 22rv1 cells): increased
nuclear expression of AR ([2]; AR+/p53wt 22rv1 cells, early): increased
nuclear FOXO, p21, p27, cyclin B1 [3]: nuclear accumulation
IC50 [1]: 43 to 201 nM
cell cycle distribution ([4]; 100 nM, 24, 48 and 72 hrs): accumulation of cells in the G1 cell cycle phase with loss of cells in the S and G2/M phase
XPO-1 localization, early treatment ([4]; 100 nM, early treatment): early XPO-1 nuclear accumulation
cyclin D1 cytosolic levels ([4]; 100 nM, early treatment): strongly reduced
cyclin D1 nuclear expression ([4]; 100 nM, early treatment): increased
XPO-1 protein levels, prolonged treatment ([4]; 100 nM, prolonged treatments): dramatically reduced
nuclear export of survivin ([4]; PCa cell lines, Western blots and ELISAs, 100 nM): reduced

Source: paper PMC4666032, “KPT-330, a potent and selective exportin-1 (XPO-1) inhibitor, shows antitumor effects modulating the expression of cyclin D1 and survivin in prostate cancer models” (BMC Cancer, 2015)
